Experiments:
[1] = tested on: SK-OV-3; assay: Phototoxicity in human SKOV3 cells assessed as reduction in cell viability in presence of irradiation with green lED light at 25.2 J/cm2 for 2 hrs followed by incubation in dark for 24 hrs by MTT assay; assay type: functional, cell-based; settings: SK-OV-3, light or radiation study
[2] = Dark toxicity in mouse DLA cells assessed as inhibition of cell viability by trypan blue dye exclusion method; assay type: cell-based; settings: read-out: INH
[3] = Phototoxicity in mouse DLA cells assessed as inhibition of cell viability illuminated for 10 mins at total dose of 46 J/cm2 irradiation by trypan blue dye exclusion method; assay type: functional
[4] = Dark toxicity in human […] cells assessed as cell viability at 50 ug/ml by CCK8 assay; assay type: cell-based; settings: read-out: Activity
[5] = Phototoxicity in human […] cells assessed as cell viability at 5 ug/ml under irradiation at 532 nm by CCK8 assay; assay type: functional; settings: light or radiation study, read-out: Activity
[6] = tested on: K562; assay: Phototoxicity in human K562 cells assessed as cell viability at 2 to 8 umol/L pre-incubated for 30 mins before irradiation at 365 nm at 3.75 J/cm2 and measured after 72 hrs by MTT assay; assay type: functional; settings: K562, light or radiation study
[7] = Dark toxicity in human LoVo cells assessed as reduction in cell viability after 72 hrs by MTT assay; assay type: cell-based
[8] = Dark toxicity in human A431 cells assessed as reduction in cell viability after 72 hrs by MTT assay; assay type: cell-based, A-431
[9] = tested on: Jurkat; assay: Phototoxicity in human Jurkat cells assessed as cell viability at 2 to 8 umol/L pre-incubated for 30 mins before irradiation at 365 nm at 3.75 J/cm2 and measured after 72 hrs by MTT assay; assay type: functional; settings: light or radiation study
[10] = Dark toxicity in human Jurkat cells assessed as reduction in cell viability after 72 hrs by MTT assay; assay type: cell-based
[11] = tested on: A-431; assay: Phototoxicity in human A431 cells assessed as cell viability at 2 to 8 umol/L pre-incubated for 30 mins before irradiation at 365 nm at 3.75 J/cm2 and measured after 72 hrs by MTT assay; assay type: functional; settings: A-431, light or radiation study
[12] = tested on: LoVo; assay: Phototoxicity in human LoVo cells assessed as cell viability at 2 to 8 umol/L pre-incubated for 30 mins before irradiation at 365 nm at 3.75 J/cm2 and measured after 72 hrs by MTT assay; assay type: functional; settings: light or radiation study
[13] = Dark toxicity in human K562 cells assessed as reduction in cell viability after 72 hrs by MTT assay; assay type: cell-based
[14] = Dark toxicity in human […] cells assessed as cell viability at 10 ug/ml by CCK8 assay; assay type: cell-based; settings: read-out: Activity
[15] = Phototoxicity in human […] cells assessed as cell viability at 10 ug/ml under irradiation at 457 nm at 20 J/cm2 by CCK8 assay; assay type: functional; settings: light or radiation study, read-out: Activity
[16] = Lipophilicity, log P of the compound; assay type: physicochemical; settings: octanol/water
[17] = tested on: MIA PaCa-2; assay: Phototoxicity in human MIAPaCa2 cells assessed as inhibition of cell growth at 6.25 uM pre-incubated for 3 hrs before irradiation with 780 nm light for 1 mins and measured after 24 hrs by MTT assay; assay type: functional; settings: MIA PaCa-2, light or radiation study, read-out: GI
[18] = tested on: BXPC-3; assay: Phototoxicity in human BxPC3 cells assessed as inhibition of cell growth at 6.25 uM pre-incubated for 3 hrs before irradiation with 780 nm light for 1 mins and measured after 24 hrs by MTT assay; assay type: functional; settings: BXPC-3, light or radiation study, read-out: GI
[19] = tested on: MIA PaCa-2; assay: Phototoxicity in human MIAPaCa2 cells assessed as inhibition of cell growth at 12.5 uM pre-incubated for 3 hrs before irradiation with 780 nm light for 1 mins and measured after 24 hrs by MTT assay; assay type: functional; settings: MIA PaCa-2, light or radiation study, read-out: GI
[20] = tested on: BXPC-3; assay: Phototoxicity in human BxPC3 cells assessed as inhibition of cell growth at 25 uM pre-incubated for 3 hrs before irradiation with 780 nm light for 1 mins and measured after 24 hrs by MTT assay; assay type: functional; settings: BXPC-3, light or radiation study, read-out: GI
[21] = tested on: BXPC-3; assay: Phototoxicity in human BxPC3 cells assessed as inhibition of cell growth at 12.5 uM pre-incubated for 3 hrs before irradiation with 780 nm light for 1 mins and measured after 24 hrs by MTT assay; assay type: functional; settings: BXPC-3, light or radiation study, read-out: GI
[22] = Dark toxicity in human BxPC3 cells assessed as inhibition of cell growth at 6.25 to 25 uM incubated for 24 hrs by MTT assay; assay type: cell-based, BXPC-3; settings: read-out: GI
[23] = Dark toxicity in human MIAPaCa2 cells assessed as inhibition of cell growth at 6.25 to 25 uM incubated for 24 hrs by MTT assay; assay type: cell-based, MIA PaCa-2; settings: read-out: GI
[24] = tested on: MIA PaCa-2; assay: Phototoxicity in human MIAPaCa2 cells assessed as inhibition of cell growth at 25 uM pre-incubated for 3 hrs before irradiation with 780 nm light for 1 mins and measured after 24 hrs by MTT assay; assay type: functional; settings: MIA PaCa-2, light or radiation study, read-out: GI

CC1=C(I)C(C)=[N+]2C1=Cc1c(C)c(I)c(C)n1[B-]2(F)F
EC50 [1]: 0.0288 µM

CC(C)c1ccc(C2=C([O-])/C(=C\c3sc4cc(I)ccc4[n+]3CCCCS(=O)(=O)O)C2=O)cc1
cytotoxicity [2]: < 10%
inhibition (INH) [3]: 80%

CCN(CC)c1ccc(/C=C2\CC/C(=C\c3ccc(N(CCC(=O)O)CCC(=O)O)cc3)C2=O)cc1
viability at 50 ug/ml [4]: > 70%
viability at 5 µg/mL [5]: > 80%

CCOC(=O)c1cc2c(n1Cc1ccc(C)cc1)-c1nc(N)ncc1CC2
GI50 [6]: 0.41 µM
GI50 at 72 h [7]: > 20 µM
GI50 at 72 h [8]: > 20 µM
GI50 [9]: 0.23 µM
GI50 at 72 h [10]: > 20 µM
GI50 [11]: 0.26 µM
GI50 [12]: 0.34 µM
GI50 at 72 h [13]: > 20 µM

COCCOCCOCCOCCN(CCOCCOCCOCCOC)c1ccc(/C=C2\CC/C(=C\c3ccc(N(CCOCCOCCOCCOC)CCOCCOCCOCCOC)cc3)C2=O)cc1
viability at 10 ug/ml [14]: > 80%
viability at 10 µg/mL [15]: > 60%
logP [16]: 2.32 to 3.04

CC1(C)C(/C=C/C2=C(Cl)C(=C/C=C3/N(CCCCS(=O)(=O)O)c4cc(I)cc(I)c4C3(C)C)/CCC2)=[N+](CCCCS(=O)(=O)O)c2cc(I)cc(I)c21
inhibition of growth at 6.25 µM [17]: 20%
inhibition of growth at 6.25 µM [18]: > 10%
inhibition of growth at 12.5 µM [19]: > 40%
inhibition of growth at 25 µM [20]: 40%
inhibition of growth at 12.5 µM [21]: > 20%
inhibition at 24 h, up to 25 µM [22]: 0%
inhibition at 24 h, up to 25 µM [23]: 0%
inhibition of growth at 25 µM [24]: 70%

CN(CCC(=O)O)c1ccc(/C=C2\CC/C(=C\c3ccc(N(C)CCC(=O)O)cc3)C2=O)cc1
viability at 50 ug/ml [4]: > 70%
viability at 5 µg/mL [5]: > 80%

CCN1/C(=C\C2=C([O-])C(=C\c3sc4cc(I)ccc4[n+]3CCCCS(=O)(=O)O)/C2=O)Sc2ccccc21
cytotoxicity [2]: < 10%
inhibition (INH) [3]: 95 - 100%

CCOC(=O)c1cc2c(n1C)-c1nc(N)ncc1CC2
GI50 [6]: > 20 µM
GI50 at 72 h [7]: > 20 µM
GI50 at 72 h [8]: > 20 µM
GI50 [9]: 8.42 µM
GI50 at 72 h [10]: > 20 µM
GI50 [11]: > 20 µM
GI50 [12]: > 20 µM
GI50 at 72 h [13]: > 20 µM

COCCOCCOCCOCCN(C)c1ccc(/C=C2\CC/C(=C\c3ccc(N(C)CCOCCOCCOCCOC)cc3)C2=O)cc1
viability at 10 ug/ml [14]: > 80%
viability at 10 µg/mL [15]: < 10%
logP [16]: 2.32 to 3.04

CC1=C(I)C(C)=[N+]2C1=C(c1c(Cl)cccc1Cl)c1c(C)c(I)c(C)n1[B-]2(F)F
EC50 [1]: 0.00077 µM

CCN(CC)c1ccc(/C=C2\CC/C(=C\c3ccc(N(C)CCC(=O)O)cc3)C2=O)cc1
viability at 50 ug/ml [4]: < 30%
viability at 5 µg/mL [5]: < 10%

CCOC(=O)c1cc2c(n1Cc1ccccc1)-c1nc(N)ncc1CC2
GI50 [6]: 0.48 µM
GI50 at 72 h [7]: 14.2 µM
GI50 at 72 h [8]: > 20 µM
GI50 [9]: 0.21 µM
GI50 at 72 h [10]: 14 µM
GI50 [11]: 0.39 µM
GI50 [12]: 0.44 µM
GI50 at 72 h [13]: > 20 µM

CC1=C(I)C(C)=[N+]2C1=C(c1ccc([N+](=O)[O-])cc1)c1c(C)c(I)c(C)n1[B-]2(F)F
EC50 [1]: 0.00201 µM

CCN(CC)c1ccc(/C=C2\CC/C(=C\c3ccc(N(CCOCCOCCOCCOC)CCOCCOCCOCCOC)cc3)C2=O)cc1
viability at 10 ug/ml [14]: > 80%
viability at 10 µg/mL [15]: 10%
logP [16]: 2.32 to 3.04

CCOC(=O)c1cc2c(n1C)-c1[nH]c(=O)ncc1CC2
GI50 [6]: 2.92 µM
GI50 at 72 h [7]: > 20 µM
GI50 at 72 h [8]: > 20 µM
GI50 [9]: 1.08 µM
GI50 at 72 h [10]: 6 µM
GI50 [11]: 2.45 µM
GI50 [12]: 2.3 µM
GI50 at 72 h [13]: > 20 µM

O=C1C(/C=C2/Sc3cc(I)ccc3N2CCCCS(=O)(=O)O)=C([O-])C/1=C\c1sc2cc(I)ccc2[n+]1CCCCS(=O)(=O)O
cytotoxicity [2]: < 10%
inhibition (INH) [3]: 95 - 100%

COc1ccc(C2=C3C(C)=C(I)C(C)=[N+]3[B-](F)(F)n3c(C)c(I)c(C)c32)cc1
EC50 [1]: 0.00065 µM

Cn1ccc2c1-c1[nH]c(=O)ncc1CC2
GI50 [6]: > 20 µM
GI50 at 72 h [7]: > 20 µM
GI50 at 72 h [8]: > 20 µM
GI50 [9]: > 20 µM
GI50 at 72 h [10]: > 20 µM
GI50 [11]: > 20 µM
GI50 [12]: > 20 µM
GI50 at 72 h [13]: > 20 µM

COCCOCCOCCN(CCOCCOCCOC)c1ccc(/C=C2\CC/C(=C\c3ccc(N(CCOCCOCCOC)CCOCCOCCOC)cc3)C2=O)cc1
viability at 10 ug/ml [14]: > 80%
viability at 10 µg/mL [15]: 60%
logP [16]: 2.32 to 3.04

CC1(C)C(/C=C/C2=C(Cl)C(=C/C=C3/N(CCCCS(=O)(=O)O)c4ccc(I)cc4C3(C)C)/CCC2)=[N+](CCCCS(=O)(=O)O)c2ccc(I)cc21
inhibition of growth at 6.25 µM [17]: 30%
inhibition of growth at 6.25 µM [18]: > 10%
inhibition of growth at 12.5 µM [19]: > 60%
inhibition of growth at 25 µM [20]: 40%
inhibition of growth at 12.5 µM [21]: > 20%
inhibition at 24 h, up to 25 µM [22]: 0%
inhibition at 24 h, up to 25 µM [23]: 0%
inhibition of growth at 25 µM [24]: > 80%

O=C(O)CCN(CCC(=O)O)c1ccc(/C=C2\CC/C(=C\c3ccc(N(CCC(=O)O)CCC(=O)O)cc3)C2=O)cc1
viability at 50 ug/ml [4]: > 70%
viability at 5 µg/mL [5]: > 80%

CC1=C(I)C(C)=[N+]2C1=C(c1ccncc1)c1c(C)c(I)c(C)n1[B-]2(F)F
EC50 [1]: 0.00129 µM

CC1(C)C(/C=C/C=C/C=C/C=C2\N(CCCCS(=O)(=O)O)c3ccc4ccccc4c3C2(C)C)=[N+](CCCCS(=O)(=O)[O-])c2ccc3ccccc3c21 [INDOCYANINE GREEN]
inhibition of growth at 6.25 µM [17]: 0%
inhibition of growth at 6.25 µM [18]: 0%
inhibition of growth at 12.5 µM [19]: 0%
inhibition of growth at 25 µM [20]: 0%
inhibition of growth at 12.5 µM [21]: 0%
inhibition at 24 h, up to 25 µM [22]: 0%
inhibition at 24 h, up to 25 µM [23]: 0%
inhibition of growth at 25 µM [24]: 0%

Source: ChEMBL document CHEMBL4270506, “Recent advances in drug discovery of phototherapeutic non-porphyrinic anticancer agents” (Eur J Med Chem, 2017)
